Data taken from patent publication US20220087990A1, “APPLICATION OF RIFAMYCIN-QUINOLIZIDONE CONJUGATE MOLECULE AND PHARMACEUTICALLY ACCEPTABLE SALT THEREOF” (priority 2019, published 2022).
In brackets after ≈: the same amount, converted by molar mass. Like-named read-outs stand apart in the source and are kept apart here.

How the values were obtained:
Assay type in all cases: cell-based
[1] = test system: Staphylococcus aureus ATCC 29213; assay: MIC measured by fluid broth microdilution method (quality control); conditions: ATCC29213
[2] = test system: methicillin-resistant Staphylococcus aureus (MRSA) isolates; assay: MIC measured by agar dilution method (CLSI); conditions: Staphylococcus aureus, MRSA, agar dilution
Procedure: (§1) Spontaneous mutation and minimal inhibit concentration (MIC) tested by agar dilution method, the above compounds are respectively prepared into a stock solution (100X) with a concentration 100 times the highest final concentration in corresponding solvents and used on the same day. Before use, I is further diluted with DMSO; and oxacillin, rifampicin and levofloxacin are further diluted with water.
(§2) Bacterial isolates: Staphylococcus aureus isolates are retrieved from the −80° C. storage room of Micromyx Culture Collection, thawed, plated onto Tryptic Soy Agar+5% sheep blood (Remel; Lenexa, Kans.), and then incubated aerobically at 35° C. overnight. S. aureus ATCC 29213 (MRSA; MMX 0100) was included during testing only for the purpose of quality control. Test Media: The isolates were tested in both the agar dilution MIC assay and the spontaneous mutation assay using Mueller-Hinton Agar (MHA; BD/BBL; Lot No. 6229829 & 4216798). Inocula of each isolate were suspended in cation-adjusted Mueller-Hinton Broth (CAMHB) (BD/BBL; Lot Nos. 5257869 & 6258541). Sodium chloride (Sigma-Aldrich; Lot No. SLBL0434V) was added to CAMHB at a final concentration of 2% when testing oxacillin. Dilutions of bacterial cell suspensions for the purpose of performing colony counts were also made in CAMHB.
(§3) MIC measured by agar dilution method: according to the recommendation from the Clinical and Laboratory Standards Institute (CLSI), the MIC value is measured by the agar dilution method. […] Each test agent was combined with molten MHA agar (50-55° C.) at a ratio of 0.2 mL of 100× test agent to 19.8 mL agar in a sterile tube, mixed gently, and then poured into a sterile petri plate (BD Falcon). Plates were allowed to solidify at room temperature. A 0.5 McFarland standard bacterial suspension was prepared, diluted 1:10 in CAMHB, and transferred to the wells of a stainless steel replicator block before stamping onto plates containing drug, resulting in 10^4 CFU/spot. After allowing the inoculum to dry on the surface of the agar, the plates were inverted, incubated aerobically at 35° C. for 20-24 hr, and inspected for growth.

[3] = test system: Staphylococcus aureus MMX 3265, 3270, 3278, and 6312; conditions: for Cell counts (mean): 1 used if no colonies
Procedure: Each test agent stock solution was prepared at 100× the final desired test concentration for the spontaneous mutation frequency assay agar plates.
The drug/agar mixture was dispensed into sterile 150×15 mm plates (BD Falcon) to a volume of 50 mL in each plate. The target inoculum for each spontaneous mutation plate was at least 10^9 CFU. Plates were allowed to solidify at room temperature.
The inocula for the spontaneous mutation frequency assay were prepared by using sterile cotton swabs to harvest colonies from freshly grown isolates and preparing a dense cell suspension (approximately 1.70 on the turbidity meter) in 6 mL of CAMHB. The viable count of this suspension was determined by plating serial ten-fold dilutions onto MHA and taking the average of duplicate counts. For the spontaneous mutation assay, 0.25 mL of inoculum was spread onto the surface of duplicate 150×15 mm plates for each drug concentration tested, allowed to dry, and then the plates were inverted and incubated at 35° C. for 48 hr prior to counting viable colonies. The spontaneous mutation frequency was calculated using the following equation:
Spontaneous mutation frequency=average number of colonies on selected plates/total number of cells incubated onto each plate
If there were no colonies on the antibiotic selection plates, the spontaneous mutation frequency was reported as less than or equal to the mutation frequency that would have resulted from the presence of one colony (e.g. 1/total number of cells inoculated onto the plate).

[4] = test system: Staphylococcus aureus ATCC 29213; assay: MIC measured by agar dilution method, quality control strain; conditions: strain 100, MSSA QC strain
Procedure: as §1, §2, §3
In parallel experiments, a standard bacterium suspension with a […] turbidity of 0.5 is prepared as a standard inoculum for agar dilution analysis (10^4 CFU/point). […] In this step, the broths and drugs used in the spontaneous mutation analysis are used to confirm that the concentration of the drug stock solution can inhibit the growth of the standard inoculum. The quality of the levofloxacin stock solution is controlled by a standard inoculum and levofloxacin of 8-0.008 μg/mL, and separate agar dilution analysis is performed. […]

[5] = isolate 3265 LEV^R RIF^S, drug 0.5 μg/mL in plates (combination 0.5 each), inoculation 5.40E+09 CFU
[6] = isolate 3265 LEV^R RIF^S, drug 2 μg/mL in plates (combination 2 each), inoculation 5.40E+09 CFU
[7] = isolate 3265 LEV^R RIF^S, drug 8 μg/mL in plates (combination 8 each), inoculation 5.40E+09 CFU
[8] = isolate 3270 LEV^R RIF^S, drug 0.5 μg/mL in plates (combination 0.5 each), inoculation 5.30E+09 CFU
[9] = isolate 3270 LEV^R RIF^S, drug 2 μg/mL in plates (combination 2 each), inoculation 5.30E+09 CFU
[10] = isolate 3270 LEV^R RIF^S, drug 8 μg/mL in plates (combination 8 each), inoculation 5.30E+09 CFU
[11] = isolate 3278 LEV^S RIF^S, drug 0.5 μg/mL in plates (combination 0.5 each), inoculation 3.80E+09 CFU
[12] = isolate 3278 LEV^S RIF^S, drug 2 μg/mL in plates (combination 2 each), inoculation 3.80E+09 CFU
[13] = isolate 3278 LEV^S RIF^S, drug 8 μg/mL in plates (combination 8 each), inoculation 3.80E+09 CFU
[14] = isolate 6312 LEV^R RIF^S, drug 0.5 μg/mL in plates (combination 0.5 each), inoculation 3.90E+09 CFU
[15] = isolate 6312 LEV^R RIF^S, drug 2 μg/mL in plates (combination 2 each), inoculation 3.90E+09 CFU
[16] = isolate 6312 LEV^R RIF^S, drug 8 μg/mL in plates (combination 8 each), inoculation 3.90E+09 CFU

CO[C@H]1/C=C/O[C@@]2(C)Oc3c(C)c(O)c4c(O)c(c(/C=N/N5CCN(C)CC5)c(O)c4c3C2=O)NC(=O)/C(C)=C\C=C\[C@H](C)[C@H](O)[C@@H](C)[C@@H](O)[C@@H](C)[C@H](OC(C)=O)[C@@H]1C [Rifampicin]
MIC [1]: 0.008 µg/mL (≈ 0.00972 µM)
MIC ([2]; strain 3085, LEV^S RIF^S): 0.015 µg/mL (≈ 0.0182 µM)
MIC ([2]; strain 3090, LEV^R RIF^S): 0.008 µg/mL (≈ 0.00972 µM)
MIC ([2]; strain 3094, LEV^R RIF^S): 0.015 µg/mL (≈ 0.0182 µM)
MIC ([2]; strain 3098, LEV^S RIF^S): 0.015 µg/mL (≈ 0.0182 µM)
MIC ([2]; strain 3265, LEV^R RIF^S): 0.008 µg/mL (≈ 0.00972 µM)
MIC ([2]; strain 3266, LEVR RIFS): 0.008 µg/mL (≈ 0.00972 µM)
MIC ([2]; strain 3270, LEV^R RIF^S): 0.015 µg/mL (≈ 0.0182 µM)
MIC ([2]; strain 3271, LEV^R RIF^S): 0.015 µg/mL (≈ 0.0182 µM)
MIC ([2]; strain 3277, LEV^S RIF^S): 0.015 µg/mL (≈ 0.0182 µM)
MIC ([2]; strain 3278, LEV^S RIF^S): 0.015 µg/mL (≈ 0.0182 µM)
MIC ([2]; strain 6312, LEV^R RIF^S): 0.015 µg/mL (≈ 0.0182 µM)
MIC ([2]; strain 6313, LEV^R RIF^S): 0.015 µg/mL (≈ 0.0182 µM)
MIC ([2]; strain 6315, LEV^R RIF^S): 0.015 µg/mL (≈ 0.0182 µM)
MIC ([2]; strain 6498, LEV^R RIF^S): 0.015 µg/mL (≈ 0.0182 µM)
MIC ([2]; strain 6501, LEV^R RIF^S): 0.015 µg/mL (≈ 0.0182 µM)
MIC ([2]; strain 6505, LEV^R RIF^S): 0.015 µg/mL (≈ 0.0182 µM)
MIC ([2]; strain 7771, LEV^R RIF^S): 0.008 µg/mL (≈ 0.00972 µM)
MIC ([2]; strain 7772, LEV^S RIF^S): 0.015 µg/mL (≈ 0.0182 µM)
MIC ([2]; strain 7773, LEV^R RIF^S): 0.015 µg/mL (≈ 0.0182 µM)
MIC ([2]; strain 7774, LEV^R RIF^S): 0.015 µg/mL (≈ 0.0182 µM)
MIC ([2]; strain 7775, LEV^R): 0.015 µg/mL (≈ 0.0182 µM)
Cell counts (mean) ([3]; isolate 3265, drug 0.5 μg/mL): 55
Cell counts (mean) ([3]; isolate 3265, drug 2 μg/mL): 29
Cell counts (mean) ([3]; isolate 3265, drug 8 μg/mL): 36
Cell counts plate A [3, 5]: 52
Cell counts plate B [3, 5]: 57
Mutation frequency [3, 5]: 1.01E−08
Cell counts plate A [3, 6]: 27
Cell counts plate B [3, 6]: 30
Mutation frequency [3, 6]: 5.28E−09
Cell counts plate A [3, 7]: 43
Cell counts plate B [3, 7]: 29
Mutation frequency [3, 7]: 6.67E−09
Cell counts (mean) ([3]; isolate 3270, drug 0.5 μg/mL): 83
Cell counts (mean) ([3]; isolate 3270, drug 2 μg/mL): 49
Cell counts (mean) ([3]; isolate 3270, drug 8 μg/mL): 43
Cell counts plate A [3, 8]: 93
Cell counts plate B [3, 8]: 73
Mutation frequency [3, 8]: 1.57E−08
Cell counts plate A [3, 9]: 44
Cell counts plate B [3, 9]: 53
Mutation frequency [3, 9]: 9.15E−09
Cell counts plate A [3, 10]: 43
Cell counts plate B [3, 10]: 42
Mutation frequency [3, 10]: 8.02E−09
Cell counts (mean) ([3]; isolate 3278, drug 0.5 μg/mL): 47
Cell counts (mean) ([3]; isolate 3278, drug 2 μg/mL): 29
Cell counts (mean) ([3]; isolate 3278, drug 8 μg/mL): 34
Cell counts plate A [3, 11]: 49
Cell counts plate B [3, 11]: 44
Mutation frequency [3, 11]: 1.22E−08
Cell counts plate A [3, 12]: 20
Cell counts plate B [3, 12]: 37
Mutation frequency [3, 12]: 7.50E−09
Cell counts plate A [3, 13]: 34
Cell counts plate B [3, 13]: 33
Mutation frequency [3, 13]: 8.82E−09
Cell counts (mean) ([3]; isolate 6312, drug 0.5 μg/mL): 32
Cell counts (mean) ([3]; isolate 6312, drug 2 μg/mL): 29
Cell counts (mean) ([3]; isolate 6312, drug 8 μg/mL): 34
Cell counts plate A [3, 14]: 34
Cell counts plate B [3, 14]: 29
Mutation frequency [3, 14]: 8.08E−09
Cell counts plate A [3, 15]: 36
Cell counts plate B [3, 15]: 22
Mutation frequency [3, 15]: 7.44E−09
Cell counts plate A [3, 16]: 38
Cell counts plate B [3, 16]: 29
Mutation frequency [3, 16]: 8.59E−09
MIC [4]: 0.015 µg/mL (≈ 0.0182 µM)
